Here are results for 28 compounds from patent US10077243B2, “Compounds for treating disorders mediated by metabotropic glutamate receptor 5, and methods of use thereof” (Sunovion Pharmaceuticals Inc., priority 2009, dated 2018).

Structures are written as SMILES. Where only a bound is given, the exact number is not on record here.

For this assay, the target named is T1, human mGluR5 (Homo sapiens, UniProt P41594).
T1 construct: expressed in transfected cells; host or cells: HEK293 cells stably expressing rat GLAST (EAAT1), stably transfected with pcDNAzeo3.1 carrying synthetic human mGluR5 DNA; zeocin-selected single clones
T1 sequence (P41594 21-1212): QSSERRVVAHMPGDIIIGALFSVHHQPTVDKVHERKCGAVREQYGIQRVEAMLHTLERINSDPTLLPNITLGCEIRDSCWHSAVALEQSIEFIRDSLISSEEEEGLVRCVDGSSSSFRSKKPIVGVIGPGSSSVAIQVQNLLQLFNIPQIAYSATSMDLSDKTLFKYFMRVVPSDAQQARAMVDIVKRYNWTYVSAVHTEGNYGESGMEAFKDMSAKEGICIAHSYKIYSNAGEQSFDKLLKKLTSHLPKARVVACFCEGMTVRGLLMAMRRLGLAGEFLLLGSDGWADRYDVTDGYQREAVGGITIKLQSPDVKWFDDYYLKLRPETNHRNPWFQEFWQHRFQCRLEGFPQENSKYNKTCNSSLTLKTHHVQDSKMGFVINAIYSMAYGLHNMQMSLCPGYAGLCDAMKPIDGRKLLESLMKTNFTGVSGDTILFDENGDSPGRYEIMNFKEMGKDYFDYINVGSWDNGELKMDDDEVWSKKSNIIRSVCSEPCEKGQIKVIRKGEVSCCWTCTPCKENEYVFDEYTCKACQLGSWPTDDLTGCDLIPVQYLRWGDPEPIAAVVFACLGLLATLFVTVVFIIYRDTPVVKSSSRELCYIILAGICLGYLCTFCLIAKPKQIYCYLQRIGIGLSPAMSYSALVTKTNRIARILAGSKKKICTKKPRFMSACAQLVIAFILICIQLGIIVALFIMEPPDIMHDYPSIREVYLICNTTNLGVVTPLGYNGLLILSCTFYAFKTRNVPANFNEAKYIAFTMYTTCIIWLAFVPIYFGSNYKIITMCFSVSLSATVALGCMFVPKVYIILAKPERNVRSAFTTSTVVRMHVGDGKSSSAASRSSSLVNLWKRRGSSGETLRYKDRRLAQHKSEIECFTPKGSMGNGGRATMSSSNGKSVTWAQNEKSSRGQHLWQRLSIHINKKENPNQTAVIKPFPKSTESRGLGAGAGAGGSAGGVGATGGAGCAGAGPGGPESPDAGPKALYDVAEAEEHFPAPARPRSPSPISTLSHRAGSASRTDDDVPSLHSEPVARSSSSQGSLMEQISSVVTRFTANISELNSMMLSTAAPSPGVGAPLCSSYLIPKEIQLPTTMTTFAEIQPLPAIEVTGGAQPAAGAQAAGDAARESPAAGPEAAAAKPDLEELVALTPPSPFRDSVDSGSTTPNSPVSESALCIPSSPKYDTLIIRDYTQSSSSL
Kind of assay: In vitro cell-based FLIPR calcium assay for positive modulation of the activation of mGluR5 by glutamate (PAM EC50). The settings on record: HEK293/GLAST cells expressing recombinant human mGluR5; FLIPR calcium signal; glutamate added at its EC20; read-out: mGluR5 PAM EC50. The procedure, abridged: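 HEK293/GLAST cells stably expressing mGluR5 were loaded with calcium-sensitive dye (25 °C, 45–60 min) in HBSS/20 mM HEPES. Test compounds were assayed in buffer containing glutamate at that day's EC20, with FLIPR fluorescence recorded. Controls contained 0.3% DMSO without compound.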
As usually defined, the EC50 is the concentration that produces a half-maximal response. Consider `O=c1c2ccc(C#Cc3cccc(F)c3)cc2nc2n1CCN(CCO)C2` [Example 5.8, 9-((3-fluorophenyl)ethynyl)-2-(2-hydroxyethyl)-3,4-dihydro-1H-pyrazino[2,1-b]quinazolin-6(2H)-one], for which the concentration giving a half-maximal response (EC50) is 30 to 100 nM. For `O=C(Cc1ccccc1)c1ccc2c(=O)n3c(nc2c1)CCCCC3` [Example 21.3, 3-(2-phenylacetyl)-7,8,9,10-tetrahydroazepino[2,1-b]quinazolin-12(6H)-one], the concentration giving a half-maximal response (EC50) fell in the range of 100 to 300 nM. The same measure for `O=c1c2ccc(/C=C/c3ccccn3)cc2nc2n1CCCCC2` [Example 20.10, (E)-3-(2-(pyridin-2-yl)vinyl)-7,8,9,10-tetrahydroazepino[2,1-b]quinazolin-12(6H)-one]: 30 to 100 nM. Next, `COCC1CCc2nc3cc(C#Cc4ccccn4)ccc3c(=O)n2C1` (single isomer, unassigned) [4.34a/4.34b slower moving enantiomer (fraction 2), 8-(methoxymethyl)-3-(pyridin-2-ylethynyl)-8,9-dihydro-6H-pyrido[2,1-b]quinazolin-11(7H)-one]: 30 to 100 nM; `CC1CCc2c(nc3cc(C#Cc4ccccn4)ccn3c2=O)C1` (stereo not shown) [Example 15.2, 3-methyl-7-(pyridin-2-ylethynyl)-3,4-dihydro-1H-pyrido[2,1-b]quinazolin-11(2H)-one]: under 10 nM. Next, `CC1(C)CC(F)c2nc3cc(C#Cc4ccccn4)ccc3c(=O)n2C1` (stereo not shown) [Example 4.47, 6-fluoro-8,8-dimethyl-3-(pyridin-2-ylethynyl)-8,9-dihydro-6H-pyrido[2,1-b]quinazolin-11(7H)-one]: under 10 nM. Turning to `O=c1c2ccc(C#Cc3nccs3)cc2nc2n1CCC1(CC2)OCCO1` [Example 7.60], the EC50 was in the range of 300 to 1000 nM.

On to `CCC(C)c1nc2cc(C#Cc3cccc(F)c3)ccc2c(=O)n1C` (stereo not shown) [Example 2.14, 2-(sec-butyl)-7-((3-fluorophenyl)ethynyl)-3-methylquinazolin-4(3H)-one], for which the EC50 was in the range of 300 to 1000 nM. The same measure for `O=c1c2ccc(C#Cc3ccco3)cc2nc2n1CCC1(CC2)OCCO1` [Example 7.55]: 30 to 100 nM.

With `CC1Cc2nc3cc(/C=C/c4ccccc4)ccc3c(=O)n2C1` (stereo not shown) [Example 20.4, (E)-2-methyl-6-styryl-2,3-dihydropyrrolo[2,1-b]quinazolin-9(1H)-one], the 50% effective concentration (EC50) lay in the range of 30 to 100 nM. As to `O=c1c2ccc(C#Cc3cccc(F)c3)cc2nc2n1CCN(CC1CCCO1)CC2` (stereo not shown) [Example 8.16, 8-((3-fluorophenyl)ethynyl)-3-((tetrahydrofuran-2-yl)methyl)-2,3,4,5-tetrahydro-[1,4]diazepino[7,1-b]quinazolin-11(1H)-one], the EC50 fell in the range of 100 to 300 nM.

For the compound `O=c1c2ccc(C#Cc3cccc(F)c3)cc2nc2n1CCOC2` [Example 4.1, 9-((3-fluorophenyl)ethynyl)-3,4-dihydro-[1,4]oxazino[3,4-b]quinzolin-6(1H)-one], the concentration giving a half-maximal response (EC50) is under 10 nM.

Take `COCCN1CCn2c(nc3cc(C#Cc4cccc(F)c4)ccc3c2=O)C1` [Example 5.9, 9-((3-fluorophenyl)ethynyl)-2-(2-methoxyethyl)-3,4-dihydro-1H-pyrazino[2,1-b]quinazolin-6(2H)-one]: the EC50 was in the range of 100 to 300 nM. Take `CC1(C)Cn2c(nc3cc(C#Cc4ccccn4)ccc3c2=O)C(F)(F)C1` [Example 4.44, 6,6-difluoro-8,8-dimethyl-3-(pyridin-2-ylethynyl)-8,9-dihydro-6H-pyrido[2,1-b]quinazolin-11(7H)-one]: the EC50 is under 10 nM. As to `COCC1Cc2nc3cc(C#Cc4ccccn4)ccc3c(=O)n2C1` (stereo not shown) [Example 3.19, 2-(methoxymethyl)-6-(pyridin-2-ylethynyl)-2,3-dihydropyrrolo[2,1-b]quinazolin-9(1H)-one], the EC50 lay within 30 to 100 nM. For `O=c1c2ccc(C#CC3=CCCCC3)cc2nc2n1CCC1(CC2)OCCO1` [Example 7.53], the 50% effective concentration (EC50) lay within 300 to 1000 nM.

Consider `O=c1c2ccc(C#CC3CCCC3)cc2nc2n1CCC1(CC2)OCCO1` [Example 7.52], for which the EC50 is 300 to 1000 nM.

For the compound `O=c1c2ccc(C#Cc3ccc(F)cc3)cc2ncn1CC1CC1` [Example 1.9, 3-(cyclopropylmethyl)-7-((4-fluorophenyl)ethynyl)quinazolin-4(3H)-one], the EC50 was in the range of 100 to 300 nM. Next, `CCNC(=O)c1cnc2cc(C#Cc3cccc(F)c3)ccn2c1=O` [Example 13.5, N-ethyl-8-((3-fluorophenyl)ethynyl)-4-oxo-4H-pyrido[1,2-a]pyrimidine-3-carboxamide]: 10 to 30 nM; `CN(C)CC1CCc2nc3cc(C#Cc4cccc(F)c4)ccc3c(=O)n21` (stereo not shown) [Example 3.4, 1-((dimethylamino)methyl)-6-((3-fluorophenyl)ethynyl)-2,3-dihydropyrrolo[2,1-b]quinazolin-9(1H)-one]: 100 to 300 nM; `O=c1c2ccc(C#Cc3ccc(F)cc3)cc2nc2n1CCC1(CC2)OCCO1` [Example 7.3]: 30 to 100 nM.

`O=c1c2ccc(C#Cc3ccccn3)cc2nc2n1CCN1CCCC1C2` (stereo not shown) [Example 9.5, 11-(pyridin-2-ylethynyl)-2,3,5,6,14,14a-hexahydropyrrolo[1′,2′:4,5][1,4]diazepino[7,1-b]quinazolin-8(1H)-one]: the 50% effective concentration (EC50) fell in the range of 100 to 300 nM. Turning to `Cc1scnc1C#Cc1ccc2c(=O)n3c(nc2c1)CCC1(CC3)OCCO1` [Example 7.63], the EC50 is 300 to 1000 nM. The same measure for `CC1(C)Cn2c(nc3cc(C#Cc4ccccn4)ccc3c2=O)CO1` [Example 4.40, 3,3-dimethyl-9-(pyridin-2-ylethynyl)-3,4-dihydro-[1,4]oxazino[3,4-b]quinazolin-6(1H)-one]: 10 to 30 nM; for `CC(c1nc2cc(C#Cc3ccccn3)ccc2c(=O)n1C)N(C)C1CCC1` (stereo not shown) [Example 2.23, 2-(1-(cyclobutyl(methyl)amino)ethyl)-3-methyl-7-(pyridin-2-ylethynyl)quinazolin-4(3H)-one]: 300 to 1000 nM; for `O=c1c2ccc(C#Cc3cccc(F)c3)cc2nc2n1CCN(Cc1ccccc1)CC2` [Example 8.9, 3-benzyl-8-((3-fluorophenyl)ethynyl)-2,3,4,5-tetrahydro-[1,4]diazepino[7,1-b]quinazolin-11(1H)-one]: 10 to 30 nM.

In the case of `C#CCN1CCc2nc3cc(C#Cc4ccccn4)ccc3c(=O)n2CC1` [Example 8.22, 3-(prop-2-yn-1-yl)-8-(pyridin-2-ylethynyl)-2,3,4,5-tetrahydro-[1,4]diazepino[7,1-b]quinazolin-11(1H)-one], the concentration for a half-maximal effect (EC50) lay within 30 to 100 nM. Next, `O=c1c2ccc(C#Cc3ccccc3)cc2nc2n1CCCCC2` [Example 6.4, 3-(phenylethynyl)-7,8,9,10-tetrahydroazepino[2,1-b]quinazolin-12(6H)-one]: under 10 nM.
